The values that follow come from PubChem BioAssay AID1259407 (Chemical Carcinogenesis Research Information System (CCRIS), 2018).

The subject of the data set is CCRIS mutagenicity, Ames/micronucleus/aberration tests. The data set can be described thus: CCRIS mutagenicity studies.
[1] abbreviates: Test System: AMES SALMONELLA TYPHIMURIUM, Strain/Indicator: TA98, Metabolic Activation: NONE, Method: STANDARD PLATE.
Setting [2] is: Test System: AMES SALMONELLA TYPHIMURIUM, Strain/Indicator: TA100, Metabolic Activation: NONE, Method: STANDARD PLATE.
[3] abbreviates: Test System: AMES SALMONELLA TYPHIMURIUM, Strain/Indicator: TA1537, Metabolic Activation: NONE, Method: STANDARD PLATE.
Where [4] appears, read: Test System: AMES SALMONELLA TYPHIMURIUM, Strain/Indicator: TA98, Metabolic Activation: NONE, Method: PREINCUBATION
Where [5] appears, read: Test System: AMES SALMONELLA TYPHIMURIUM, Strain/Indicator: TA100, Metabolic Activation: NONE, Method: PREINCUBATION

Activity calls are given as the source filed them. No rule for the calls is given here.

For `CCc1cc(C(C)(C)C)c(O)c(C(C)(C)C)c1`, the mutagenic call by setting is: (Test System: AMES SALMONELLA TYPHIMURIUM, Strain/Indicator: TA97, Metabolic Activation: NONE, Method: STANDARD PLATE) “inactive; negative”; (Test System: AMES SALMONELLA TYPHIMURIUM, Strain/Indicator: TA97, Metabolic Activation: S-9, Method: STANDARD PLATE) “inactive; negative”; under setting [1], “inactive; negative”; (Test System: AMES SALMONELLA TYPHIMURIUM, Strain/Indicator: TA98, Metabolic Activation: S-9, Method: STANDARD PLATE) “inactive; negative”; under setting [2], “inactive; negative”; (Test System: AMES SALMONELLA TYPHIMURIUM, Strain/Indicator: TA100, Metabolic Activation: S-9, Method: STANDARD PLATE) “inactive; negative”. In addition, the mutagenic call is, setting by setting: (Test System: AMES SALMONELLA TYPHIMURIUM, Strain/Indicator: TA102, Metabolic Activation: NONE, Method: STANDARD PLATE) “inactive; negative”; (Test System: AMES SALMONELLA TYPHIMURIUM, Strain/Indicator: TA102, Metabolic Activation: S-9, Method: STANDARD PLATE) “inactive; negative”; (Test System: E.COLI, Strain/Indicator: WP2 (PKM101), Metabolic Activation: NONE, Method: STANDARD PLATE) “inactive; negative”; (Test System: E.COLI, Strain/Indicator: WP2 (PKM101), Metabolic Activation: S-9, Method: STANDARD PLATE) “inactive; negative”.
As for `BrCc1cccc2c1-c1cccc3cccc-2c13`, the mutagenic call was “active; positive” under setting [1] and “active; positive” under setting [2].
For the molecule `[N-]=[N+]=Nc1ccc(Nc2c3ccccc3nc3ccccc23)cc1`, the mutagenic call under setting [3] was “active; positive”.
`Clc1cc(Cl)c(Cl)c(Cl)c1Cl`: the mutagenic call reads like this: (Test System: AMES SALMONELLA TYPHIMURIUM, Strain/Indicator: TA98, Metabolic Activation: HAMSTER, LIVER, S-9, AROCLOR 1254, Method: PREINCUBATION) “inactive; negative”; under setting [4], “inactive; negative”; (Test System: AMES SALMONELLA TYPHIMURIUM, Strain/Indicator: TA98, Metabolic Activation: RAT, LIVER, S-9, AROCLOR 1254, Method: PREINCUBATION) “inactive; negative”; (Test System: AMES SALMONELLA TYPHIMURIUM, Strain/Indicator: TA100, Metabolic Activation: HAMSTER, LIVER, S-9, AROCLOR 1254, Method: PREINCUBATION) “inactive; negative”; under setting [5], “inactive; negative”; (Test System: AMES SALMONELLA TYPHIMURIUM, Strain/Indicator: TA100, Metabolic Activation: RAT, LIVER, S-9, AROCLOR 1254, Method: PREINCUBATION) “inactive; negative”. For the same molecule, the mutagenic call runs as follows: (Test System: AMES SALMONELLA TYPHIMURIUM, Strain/Indicator: TA1535, Metabolic Activation: HAMSTER, LIVER, S-9, AROCLOR 1254, Method: PREINCUBATION) “inactive; negative”; (Test System: AMES SALMONELLA TYPHIMURIUM, Strain/Indicator: TA1535, Metabolic Activation: NONE, Method: PREINCUBATION) “inactive; negative”; (Test System: AMES SALMONELLA TYPHIMURIUM, Strain/Indicator: TA1535, Metabolic Activation: RAT, LIVER, S-9, AROCLOR 1254, Method: PREINCUBATION) “inactive; negative”; (Test System: AMES SALMONELLA TYPHIMURIUM, Strain/Indicator: TA1537, Metabolic Activation: HAMSTER, LIVER, S-9, AROCLOR 1254, Method: PREINCUBATION) “inactive; negative”; (Test System: AMES SALMONELLA TYPHIMURIUM, Strain/Indicator: TA1537, Metabolic Activation: NONE, Method: PREINCUBATION) “inactive; negative”; (Test System: AMES SALMONELLA TYPHIMURIUM, Strain/Indicator: TA1537, Metabolic Activation: RAT, LIVER, S-9, AROCLOR 1254, Method: PREINCUBATION) “inactive; negative”.
Turning to `COc1cc(N)ccc1C`, the mutagenic call is “active; positive” (Test System: AMES SALMONELLA TYPHIMURIUM, Strain/Indicator: TA98, Metabolic Activation: HAMSTER, LIVER, S-9, AROCLOR 1254 (30%), Method: PREINCUBATION); “inactive; negative” under setting [4]; “active; positive” (Test System: AMES SALMONELLA TYPHIMURIUM, Strain/Indicator: TA98, Metabolic Activation: RAT, LIVER, S-9, AROCLOR 1254 (30%), Method: PREINCUBATION); “active; positive” (Test System: AMES SALMONELLA TYPHIMURIUM, Strain/Indicator: TA100, Metabolic Activation: HAMSTER, LIVER, S-9, AROCLOR 1254 (30%), Method: PREINCUBATION); “inactive; negative” under setting [5]; “active; positive” (Test System: AMES SALMONELLA TYPHIMURIUM, Strain/Indicator: TA100, Metabolic Activation: RAT, LIVER, S-9, AROCLOR 1254 (30%), Method: PREINCUBATION).
For the molecule `Oc1cccc2cc3cccc(O)c3c(O)c12`, the mutagenic call under setting [2] is “inactive; negative”; the mutagenic call (Test System: AMES SALMONELLA TYPHIMURIUM, Strain/Indicator: TA100, Metabolic Activation: RAT, LIVER, S-9, AROCLOR 1254, Method: STANDARD PLATE) was “inactive; negative”; the mutagenic call (Test System: AMES SALMONELLA TYPHIMURIUM, Strain/Indicator: TA1535, Metabolic Activation: NONE, Method: STANDARD PLATE) was “inactive; negative”; the mutagenic call (Test System: AMES SALMONELLA TYPHIMURIUM, Strain/Indicator: TA1535, Metabolic Activation: RAT, LIVER, S-9, AROCLOR 1254, Method: STANDARD PLATE) is “inactive; negative”; the mutagenic call (Test System: E. COLI, Strain/Indicator: WP2 UVRA, Metabolic Activation: HAMSTER, LIVER, S-9, AROCLOR 1254, Method: STANDARD PLATE) is “inactive; negative”; the mutagenic call (Test System: E. COLI, Strain/Indicator: WP2 UVRA, Metabolic Activation: HAMSTER, LIVER, S-9, Method: STANDARD PLATE) was “inactive; negative”. Also, the mutagenic call runs as follows: (Test System: E. COLI, Strain/Indicator: WP2 UVRA, Metabolic Activation: MOUSE, LIVER, S-9, AROCLOR 1254, Method: STANDARD PLATE) “inactive; negative”; (Test System: E. COLI, Strain/Indicator: WP2 UVRA, Metabolic Activation: MOUSE, LIVER, S-9, Method: STANDARD PLATE) “inactive; negative”; (Test System: E. COLI, Strain/Indicator: WP2 UVRA, Metabolic Activation: NONE, Method: STANDARD PLATE) “inactive; negative”; (Test System: E. COLI, Strain/Indicator: WP2 UVRA, Metabolic Activation: RAT, LIVER, S-9, AROCLOR 1254, Method: STANDARD PLATE) “inactive; negative”; (Test System: E. COLI, Strain/Indicator: WP2 UVRA, Metabolic Activation: RAT, LIVER, S-9, Method: STANDARD PLATE) “inactive; negative”.
Turning to `OCc1ccc(Br)cc1`, the mutagenic call under setting [2] is “inactive; negative”.
`CN(C)CCNC(=O)c1ccc2c(N)c3ccccc3nc2c1`: the mutagenic call under setting [3] was “inactive; negative”.
